Values quoted from earlier work, collected in patent US20060253014A1 (priority 2003, published 2006).
Read-outs that look alike come from different tables or passages of the source.

Test system: inbred mouse strains

| SMILES | Sensitive Strains (low AD50) (murine strains, AD50 = the half-maximal antinociceptive dose) | Resistant Stains (high AD50) (mouse, in vivo) | Sensitive Strains (low AD50) (mouse, in vivo) |
| --- | --- | --- | --- |
| Clc1cccc(Cl)c1N=C1NCCN1 [Clonidine, clonidine] | 129P3, A, AKR, |  |  |
| Clc1ccc(C2CC3CCC2N3)cn1 (stereo not drawn) [Epibetadine, epibatidine] |  | AKR, CBA, C57BL/10 | A, BALB/c |
| Cc1c(C(=O)c2cccc3ccccc23)c2cccc3c2n1[C@H](CN1CCOCC1)CO3 [WIN 55, 212-2] |  | AKR, C57BL/10, C58 | 129P3, A, DBA/2 |
| CN1CC[C@]23c4c5ccc(O)c4O[C@H]2[C@@H](O)C=C[C@H]3[C@H]1C5 [morphine] |  |  | 129P3, C3H/He, DBA/2 |
